Assay results: PubChem BioAssay AID1963451 (Molecular Pharmacology Branch, DTP, NCI, 2024)
pIC50: −log10 of the molar value.

System: 521955-158-R6-J3-PDC complex spheroid growth, % test/control
Experiment: Anticancer human tumor 521955-158-R6-J3-PDC patient-derived pancreatic carcinoma cell line growth inhibition [Asc]
Details: for pIC50: curve of first compound; for viability, T/C: stronger effect = lower value
Procedure, shortened: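 Tumor cells were grown as multicellular spheroids with stromal HUVEC and mesenchymal stem cells and treated singly or in combination. Concentrations fell in half-log steps from the clinical Cmax, or from 10 microM where none was known.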

[1] = second compound 0.00949 µM, first compound 0.0316 µM
[2] = second compound 0.00949 µM, first compound 0.1 µM
[3] = second compound 0.00949 µM, first compound 0.316 µM
[4] = second compound 0.00949 µM, first compound 1 µM
[5] = second compound 0.03 µM, first compound 0.0316 µM
[6] = second compound 0.03 µM, first compound 0.1 µM
[7] = second compound 0.03 µM, first compound 0.316 µM
[8] = second compound 0.03 µM, first compound 1 µM
[9] = second compound 0.0949 µM, first compound 0.0316 µM
[10] = second compound 0.0949 µM, first compound 0.1 µM
[11] = second compound 0.0949 µM, first compound 0.316 µM
[12] = second compound 0.0949 µM, first compound 1 µM
[13] = second compound 0.3 µM, first compound 0.0316 µM
[14] = second compound 0.3 µM, first compound 0.1 µM
[15] = second compound 0.3 µM, first compound 0.316 µM
[16] = second compound 0.3 µM, first compound 1 µM
[17] = second compound 0.949 µM, first compound 0.0316 µM
[18] = second compound 0.949 µM, first compound 0.1 µM
[19] = second compound 0.949 µM, first compound 0.316 µM
[20] = second compound 0.949 µM, first compound 1 µM
[21] = second compound 3 µM, first compound 0.0316 µM
[22] = second compound 3 µM, first compound 0.1 µM
[23] = second compound 3 µM, first compound 0.316 µM
[24] = second compound 3 µM, first compound 1 µM
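Note: spheroids exposed to compounds for 7 days.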
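Throughout, for viability, T/C: 100% = DMSO vehicle control wells.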

SMILES: COc1c(OCCCN2CCOCC2)ccc2c3n(c(=NC(=O)c4cnc(N)nc4)nc12)CCN3 + CCN1C(C(=O)NC23CCC(C(=O)O)(CC2)CC3)C(c2cccc(Cl)c2F)C2(C(=O)Nc3cc(Cl)ccc32)C12CCCCC2
- pIC50 (second compound 0.00949 µM): 6.68
- pIC50 (second compound 0.03 µM): 6.44
- pIC50 (second compound 0.0949 µM): 6.33
- pIC50 (second compound 0.3 µM): 6.49
- pIC50 (second compound 0.949 µM): 6.51
- pIC50 (second compound 3 µM): 6.54
- viability, T/C (second compound 0.00949 µM, first compound 0.00316 µM): 102%
- viability, T/C (second compound 0.00949 µM, first compound 0.01 µM): 79.9%
- viability, T/C [1]: 62.5%
- viability, T/C [2]: 65.2%
- viability, T/C [3]: 51.9%
- viability, T/C [4]: 28.3%
- viability, T/C (second compound 0.03 µM, first compound 0.00316 µM): 93.4%
- viability, T/C (second compound 0.03 µM, first compound 0.01 µM): 77.1%
- viability, T/C [5]: 73.2%
- viability, T/C [6]: 66.2%
- viability, T/C [7]: 52.6%
- viability, T/C [8]: 37.4%
- viability, T/C (second compound 0.0949 µM, first compound 0.00316 µM): 79.1%
- viability, T/C (second compound 0.0949 µM, first compound 0.01 µM): 77.9%
- viability, T/C [9]: 59.5%
- viability, T/C [10]: 77.7%
- viability, T/C [11]: 53.9%
- viability, T/C [12]: 37%
- viability, T/C (second compound 0.3 µM, first compound 0.00316 µM): 95.5%
- viability, T/C (second compound 0.3 µM, first compound 0.01 µM): 83.3%
- viability, T/C [13]: 70.1%
- viability, T/C [14]: 65.5%
- viability, T/C [15]: 56%
- viability, T/C [16]: 32.1%
- viability, T/C (second compound 0.949 µM, first compound 0.00316 µM): 84%
- viability, T/C (second compound 0.949 µM, first compound 0.01 µM): 90.6%
- viability, T/C [17]: 80.5%
- viability, T/C [18]: 67.6%
- viability, T/C [19]: 50.6%
- viability, T/C [20]: 32.7%
- viability, T/C (second compound 3 µM, first compound 0.00316 µM): 82.1%
- viability, T/C (second compound 3 µM, first compound 0.01 µM): 83.8%
- viability, T/C [21]: 78.8%
- viability, T/C [22]: 65%
- viability, T/C [23]: 49.6%
- viability, T/C [24]: 28.8%

SMILES: C=C(F)C(=O)N1CCN(c2nc(OCC3CCCN3C)nc3c2CCN(c2cccc4cccc(Cl)c24)C3)CC1CC#N (centres undefined) + CCN1C(C(=O)NC23CCC(C(=O)O)(CC2)CC3)C(c2cccc(Cl)c2F)C2(C(=O)Nc3cc(Cl)ccc32)C12CCCCC2
- pIC50 (second compound 0.00949 µM): 5.32
- pIC50 (second compound 0.03 µM): 5.28
- pIC50 (second compound 0.0949 µM): 5.32
- pIC50 (second compound 0.3 µM): 5.27
- pIC50 (second compound 0.949 µM): 5.29
- pIC50 (second compound 3 µM): 5.25
- viability, T/C [1]: 107%
- viability, T/C [2]: 98.7%
- viability, T/C [3]: 102%
- viability, T/C [4]: 95.6%
- viability, T/C (second compound 0.00949 µM, first compound 3.16 µM): 79.4%
- viability, T/C (second compound 0.00949 µM, first compound 10 µM): 0.48%
- viability, T/C [5]: 117%
- viability, T/C [6]: 108%
- viability, T/C [7]: 111%
- viability, T/C [8]: 91.7%
- viability, T/C (second compound 0.03 µM, first compound 3.16 µM): 90.2%
- viability, T/C (second compound 0.03 µM, first compound 10 µM): 2.78%
- viability, T/C [9]: 113%
- viability, T/C [10]: 121%
- viability, T/C [11]: 108%
- viability, T/C [12]: 94%
- viability, T/C (second compound 0.0949 µM, first compound 3.16 µM): 81.8%
- viability, T/C (second compound 0.0949 µM, first compound 10 µM): 0.48%
- viability, T/C [13]: 109%
- viability, T/C [14]: 97.7%
- viability, T/C [15]: 96%
- viability, T/C [16]: 92.4%
- viability, T/C (second compound 0.3 µM, first compound 3.16 µM): 91.6%
- viability, T/C (second compound 0.3 µM, first compound 10 µM): 0.41%
- viability, T/C [17]: 103%
- viability, T/C [18]: 110%
- viability, T/C [19]: 103%
- viability, T/C [20]: 113%
- viability, T/C (second compound 0.949 µM, first compound 3.16 µM): 84.9%
- viability, T/C (second compound 0.949 µM, first compound 10 µM): 0.49%
- viability, T/C [21]: 94%
- viability, T/C [22]: 109%
- viability, T/C [23]: 102%
- viability, T/C [24]: 86.2%
- viability, T/C (second compound 3 µM, first compound 3.16 µM): 101%
- viability, T/C (second compound 3 µM, first compound 10 µM): 0.33%
